Assay results from patent US20260274904A1, “ANTIMICROBIAL NCR2 PEPTIDES” (Donald Danforth Plant Science Center, priority 2019, published 2026).
≈ marks a conversion by molar mass, not a printed value. Entries after “also recorded” stand apart in the source; their conditions may differ. Where two headings read alike, the source gives them in different places. Where a SMILES comes first, the peptide text is derived from it.

What was measured:
[1] = Protein-phospholipid overlay assay (PIP Strips); conditions: protein-lipid overlay, 1 μg/ml peptide, 100 pmol lipid per spot
Procedure: (§2) Briefly, lipid strips were blocked with 10 mL of blocking buffer, PBS-T/3% fat free BSA for 12-16 h at 4° C. with gentle agitation. […] After hybridization, protein solution was discarded and the strips were then washed with PBS-T three times with gentle agitation for 20 minutes each for 1 hour at room temperature. […] The lipid strips were washed with PBS-T two times with gentle agitation, for 15 minutes each wash, at room temperature. HRP-conjugated Mouse Anti-Rabbit IgG secondary antibody (GenScript Cat no A01827) diluted 1:4000 in blocking buffer was added to the lipid strips and incubated for 60 minutes at 4° C. After two washes with PBS-T, chemiluminescence was detected using SuperSignal® West Pico PLUS Sensitivity substrate kit (Thermo Scientific, Cat no: 34080 following the manufacturer's protocol.

[2] = Protein-phospholipid overlay assay (PIP Strips); conditions: protein-lipid overlay, 1 μg/ml peptide, 100 pmol lipid per spot; remark: listed apart in the source
Procedure: as §2

[3] = Protein-phospholipid overlay assay (PIP Strips); conditions: protein-lipid overlay, 1 μg/ml peptide, 100 pmol lipid per spot; remark: listed apart in the source
Procedure: as §2

[4] = Protein-phospholipid overlay assay (PIP Strips), overall; conditions: protein-lipid overlay, 1 μg/ml peptide, 100 pmol lipid per spot
Procedure: as §2

[5] = Protein-phospholipid overlay assay (PIP Strips); conditions: protein-lipid overlay, 1 μg/ml peptide, 100 pmol lipid per spot; remark: listed apart in the source
Procedure: as §2

Botrytis cinerea [6] = experiment: Detached lettuce leaf infection assay (in planta antifungal activity); assay type: in vivo; conditions: detached iceberg lettuce leaves, peptide 3, 6, and 12 μM drop inoculated, 48 hours
[7] = Protein-phospholipid overlay assay (PIP Strips); conditions: protein-lipid overlay, 1 μg/ml peptide, 100 pmol lipid per spot; remark: listed apart in the source
Procedure: as §2

[8] = Protein-phospholipid overlay assay (PIP Strips); conditions: protein-lipid overlay, 1 μg/ml peptide, 100 pmol lipid per spot; remark: listed apart in the source
Procedure: as §2

P. capsici = experiment: Resazurin cell viability assay; assay type: cell-based, Phytophthora capsici
Botrytis cinerea [9] = conditions: for antifungal activity compared with the antifungal activity of NCR2 monomer: against B. cinerea
[10] = Protein-phospholipid overlay assay (PIP Strips); conditions: protein-lipid overlay, 1 μg/ml peptide, 100 pmol lipid per spot; remark: listed apart in the source
Procedure: as §2

[11] = Protein-phospholipid overlay assay (PIP Strips); conditions: protein-lipid overlay, 1 μg/ml peptide, 100 pmol lipid per spot; remark: listed apart in the source
Procedure: as §2

[12] = system: Phytophthora capsici LT263
F. virguliforme [13] = system: F. virguliforme
Fusarium species = assay type: cell-based, Fusarium sp.; conditions: against F. oxysporum, F. graminearum and F. virguliforme
F. oxysporum [14] = system: F. oxysporum
[15] = system: Fusarium graminearum PH-1; assay type: cell-based; conditions: F. graminearum, absorbance at 595 nm at 48 hours
F. oxysporum [16] = experiment: Resazurin cell viability assay; assay type: cell-based, Fusarium oxysporum
Procedure: (§1) The antifungal and anti-oomycete activity was conducted as described previously (Spelbrink et al. 2004; Sagaram et al. 2011; Velivelli et al. 2018) with minor modifications. The antifungal and anti-oomycete activity of NCR peptides were determined in an in vitro assay using 96-well microtiter plates. Fifty microliters of each protein dilution (0, 0.1, 0.3, 0.7, 1.5, 3 and 6 μM) was added to each well of the microtiter plate containing 50 μL of (zoo)spore suspension prepared in 2×SFM at a final concentration of 10^5 (zoo)spores/ml. The plates were incubated at room temperature and the quantitative fungal growth inhibition was estimated by measuring the absorbance at 595 nm using a Tecan Infinite M200 Pro (Tecan Systems Inc., San Jose, CA) microplate reader at 48 hours. The fungal/oomycete cell viability/cell killing was determined by the resazurin cell viability assay. After incubation at 48 hours, 10 μl of 0.1% resazurin solution was added to each well and re-incubated overnight. A change from blue to pink color indicates reduction of resazurin and cell viability.

F. virguliforme [17] = experiment: Resazurin cell viability assay; assay type: cell-based, Fusarium virguliforme
Procedure: as §1

F. graminearum = assay type: cell-based, Fusarium graminearum
[18] = B. cinerea, absorbance at 595 nm at 48 hours
[19] = P. capsici zoospores, absorbance at 595 nm at 48 hours

Row | Molecule | binding to phosphatidic acid (PA) [1] | binding to PI(3,4,5)P3 [2] | binding to PI(3,4)P2 [3] | binding to phospholipids (overall) [4] | binding to PI(5)P [5] | size of disease lesions caused by Botrytis cinerea (Botrytis cinerea [6]) | binding to PI(4)P [7] | binding to PI(3)P [8] | concentration of cell death (resazurin assay) (P. capsici) [µM] | IC50 (Botrytis cinerea [9]; 48 h) [µM] | MIC (Botrytis cinerea [9]; 48 h) [µM] | binding to PI(3,5)P2 [10] | binding to PI(4,5)P2 [11] | IC50 ([12]; 48 h) [µM] | MIC ([12]; 48 h) [µM] | MIC (F. virguliforme [13]) [µM] | increase in the antifungal activity of dimer compared with the monomer (Fusarium species) | IC50 (F. oxysporum [14]) [µM] | MIC (F. oxysporum [14]) [µM] | IC50 [15] [µM] | also measured
1 | CC[C@H](C)[C@H](NC(=O)[C@H](CCCNC(=N)N)NC(=O)[C@H](CCCNC(=N)N)NC(=O)[C@H](CCCNC(=N)N)NC(=O)[C@@H](NC(=O)[C@H](CS)NC(=O)[C@H](Cc1ccc(O)cc1)NC(=O)CNC(=O)[C@H](CCCCN)NC(=O)[C@H](CCCNC(=N)N)NC(=O)[C@H](CS)NC(=O)[C@H](CCCNC(=N)N)NC(=O)[C@H](C)NC(=O)[C@H](CCCNC(=N)N)NC(=O)[C@H](Cc1ccc(O)cc1)NC(=O)[C@H](CC(N)=O)NC(=O)[C@H](CCCCN)NC(=O)[C@@H](NC(=O)[C@@H](NC(=O)[C@H](CO)NC(=O)[C@H](CS)NC(=O)[C@@H]1CCCN1C(=O)CNC(=O)[C@H](CCCCN)NC(=O)[C@H](Cc1ccccc1)NC(=O)[C@H](CCCCN)NC(=O)[C@H](Cc1c[nH]cn1)NC(=O)[C@H](CS)NC(=O)[C@@H]1CCCN1C(=O)[C@H](CCCCN)NC(=O)[C@H](CO)NC(=O)[C@H](CC(C)C)NC(=O)[C@H](CCC(N)=O)NC(=O)[C@@H](NC(=O)[C@H](Cc1ccccc1)NC(=O)[C@H](C)N)[C@@H](C)CC)[C@@H](C)CC)C(C)C)C(C)C)C(=O)N[C@@H](CCCNC(=N)N)C(=O)O [NCR2_V1] (H-AFIQLSKPCHKFKGPCSIVKNYRARCRKGYCVRRRIR-OH) | weakly | No binding | weakly | bind to multiple phospholipids | bound tightly; also recorded: greater affinity than the wild-type NCR2 peptide | much smaller lesions; also recorded: effective in reducing the size of disease lesions | bound tightly; also recorded: greater affinity than the wild-type NCR2 peptide | bound tightly; also recorded: greater affinity than the wild-type NCR2 peptide | 3 | 1.5 | 2 to 3 | weakly | weakly | 2 | 3 (≈ 13.3 µg/mL) | – | – | – | – | – | size of disease lesions caused by Botrytis cinerea (Botrytis cinerea [6]; listed as NCR2 V1): effective in reducing the sizes of disease lesions
2 | CC[C@H](C)[C@H](NC(=O)[C@H](CCCNC(=N)N)NC(=O)[C@H](CCCNC(=N)N)NC(=O)[C@H](CCCNC(=N)N)NC(=O)[C@@H](NC(=O)[C@H](CS)NC(=O)[C@H](Cc1ccc(O)cc1)NC(=O)CNC(=O)[C@H](CCCCN)NC(=O)[C@H](CCCNC(=N)N)NC(=O)[C@H](CS)NC(=O)[C@H](CCCNC(=N)N)NC(=O)[C@H](C)NC(=O)[C@H](CCCNC(=N)N)NC(=O)[C@H](Cc1ccc(O)cc1)NC(=O)[C@H](CC(N)=O)NC(=O)[C@H](CCCCN)NC(=O)[C@@H](NC(=O)[C@@H](NC(=O)[C@H](CO)NC(=O)[C@H](CS)NC(=O)[C@H](CCC(=O)O)NC(=O)[C@H](CCCCN)NC(=O)[C@H](CC(=O)O)NC(=O)[C@H](CO)NC(=O)[C@@H](NC(=O)[C@H](CS)NC(=O)[C@@H]1CCCN1C(=O)[C@H](CCCCN)NC(=O)[C@H](CO)NC(=O)[C@H](CC(C)C)NC(=O)[C@H](CCC(N)=O)NC(=O)[C@@H](NC(=O)[C@H](CS)NC(=O)[C@H](Cc1ccccc1)NC(=O)[C@H](C)N)[C@@H](C)CC)[C@@H](C)CC)[C@@H](C)CC)C(C)C)C(C)C)C(=O)N[C@@H](CCCNC(=N)N)C(=O)N[C@@H](CS)C(=O)O [NCR2_V2] (H-AFCIQLSKPCISDKECSIVKNYRARCRKGYCVRRRIRC-OH; N-terminus and C-terminus assumed) | – | – | – | not found to bind to any phospholipids; also recorded: does not bind to any Phospholipids | – | much smaller lesions; also recorded: effective in reducing the sizes of disease lesions | – | – | 6 | 2 | 3 (≈ 13.6 µg/mL) | – | – | 3 | 6 (≈ 27.1 µg/mL) | – | – | – | – | – | binding to phospholipids (overall) ([4]; listed as NCR2 V2): does not bind to any phospholipids
3 | AFIQLSKPCISDKECSIVKNYRARCRKGYCVRRRIRGGKAGKKAPKAFIQLSKPCISDKECSIVKNYRARCRKGYCVRRRIR [NCR2-L2-NCR2] | – | – | – | – | – | – | – | – | – | – | – | – | – | – | – | 1.5 | Two-fold increase | 0.3 | 0.75 | 1 | IC50 (Botrytis cinerea [9]; [18]): 0.75 µM; MIC (Botrytis cinerea [9]; [18]): 1.5 µM; antifungal activity compared with the antifungal activity of NCR2 monomer (Botrytis cinerea [9]): significant increase; MIC [15]: 1.5 µM
4 | CC[C@H](C)[C@H](NC(=O)[C@H](CCCNC(=N)N)NC(=O)[C@H](CCCNC(=N)N)NC(=O)[C@H](CCCNC(=N)N)NC(=O)[C@@H](NC(=O)[C@H](CS)NC(=O)[C@H](Cc1ccc(O)cc1)NC(=O)CNC(=O)[C@H](CCCCN)NC(=O)[C@H](CCCNC(=N)N)NC(=O)[C@H](CS)NC(=O)[C@H](CCCNC(=N)N)NC(=O)[C@H](C)NC(=O)[C@H](CCCNC(=N)N)NC(=O)[C@H](Cc1ccc(O)cc1)NC(=O)[C@H](CC(N)=O)NC(=O)[C@H](CCCCN)NC(=O)[C@@H](NC(=O)[C@@H](NC(=O)[C@H](CO)NC(=O)[C@H](CS)NC(=O)[C@H](CCC(=O)O)NC(=O)[C@H](CCCCN)NC(=O)[C@H](CC(=O)O)NC(=O)[C@H](CO)NC(=O)[C@@H](NC(=O)[C@H](CS)NC(=O)[C@@H]1CCCN1C(=O)[C@H](CCCCN)NC(=O)[C@H](CO)NC(=O)[C@H](CC(C)C)NC(=O)[C@H](CCC(N)=O)NC(=O)[C@@H](NC(=O)[C@H](Cc1ccccc1)NC(=O)[C@H](C)N)[C@@H](C)CC)[C@@H](C)CC)[C@@H](C)CC)C(C)C)C(C)C)C(=O)N[C@@H](CCCNC(=N)N)C(=O)O [NCR2] (H-AFIQLSKPCISDKECSIVKNYRARCRKGYCVRRRIR-OH; N-terminus and C-terminus assumed) | bound weakly | bound weakly | bound weakly | bind to multiple phospholipids | bound weakly | smaller lesions compared to no peptide control | bound weakly | bound weakly | 3 | 1.5 | 2 to 3 | strongly binds | bound weakly | 2 | 3 (≈ 13 µg/mL) | – | – | – | – | 1.5 to 2 | concentration at which cells were killed (resazurin assay) (F. oxysporum [16]): 1.5 µM; MIC (F. virguliforme [13]; 48 h): 3 µM (≈ 13 µg/mL); concentration at which cells were killed (resazurin assay) (F. virguliforme [17]): 3 µM; IC50 (F. oxysporum [14]; 48 h): 0.5 µM; concentration at which cells were killed (resazurin assay) (F. graminearum): 3 µM
5 | AFIQLSKPCISDKECSIVKNYRARCRKGYCVRRRIRAPKKVEPAFIQLSKPCISDKECSIVKNYRARCRKGYCVRRRIR (protein, two copies of NCR2 linked in tandem by linker peptide APKKVEP (L1)) AFIQLSKPCISDKECSIVKNYRARCRKGYCVRRRIRAPKKVEPAFIQLSKPCISDKECSIVKNYRARCRKGYCVRRRIR | – | – | – | – | – | – | – | – | 3 | – | – | – | – | – | – | 1.5 | Two-fold increase | 0.3 | 0.75 | 1 | IC50 (Botrytis cinerea [9]; [18]): 0.75 µM; MIC (Botrytis cinerea [9]; [18]): 1.5 µM; antifungal activity compared with the antifungal activity of NCR2 monomer (Botrytis cinerea [9]): significant increase; MIC [15]: 1.5 µM; IC50 [12, 19]: 2 µM; MIC [12, 19]: 3 µM
